# How the values were obtained:
# HSP1A1 = test: Real time PCR, HSP1A1 (HSP 72) gene expression in RHE; type: cell-based, Human; conditions: for HSP 72 (RQ): cold stressed RHE, calibrator stressed saline =1 (Fig. 7)
# Source text: (§1) An experimental model of epidermal dryness, induced by modified room humidity and temperature conditions, has been used to assess the efficacy of 3 cosmetic products characterized by the following compositions SOLUTION 1 Water + trehalose 1% SOLUTION 2 Water + ectoine 0,5% SOLUTION 3 Water + ectoine 0,5% + trehalose 1%.
# (§2) SkinEthic® Reconstructed Human Epidermis (RHE) of 0,5 cm^2 is a fully differentiated epidermis formed after 17 day of air-lift culture of NHK from skin biopsies in a chemically defined medium. The model reproduces epidermal morphology and it has been fully characterized. The good barrier function, batch reproducibility and low variability in terms of permeability for probe molecules have been described in the Literature compared to human ex-vivo models.
# (§3) For the three steps, ready to use reagents were used. The RNAqueous method is a rapid, phenol free, filter based RNA isolation system used to extract the total RNA from cellular samples. The High Capacity cDNA Reverse Transcription kit was used to synthetize cDNA from RNA. The instrument Applied Biosystems 7500 Fast Real Time PCR with fluorescent-based PCR chemistry, the TaqMan assay, was used to study gene expression of significant biomarkers. Gene expression is the process by which the inheritable information in a gene, such as the DNA sequence, is made into a functional gene product, such as protein or RNA. Relative quantification determines the change in the expression of a nucleic acid sequence in a test sample relative to the same sequence in a calibrator sample. Beta-actin was used as an endogenous control gene to normalize input amounts.
# (§4) Each replicate was assessed in triplicate. At the 2X TaqMan Fast Universal PCR Master Mix was added Taqman gene expression assay and cDNA (25 ng) for a total volume of 25 µL. The Thermal condition steps in the ABI PRISM 7500 Fast are: 95°C 20 sec; 40 cycles (95°C 3 sec +60°C 30 sec).
# (§5) Fluorescence data of the RT-PCR generated by the thermocycler ABI PRISM 7500 Fast, are collected by the internal software SDS 2.0.5 and the Raw Data (RQ study results) are printed and exported in Excel.
# (§6) Because each cycle in the PCR reaction corresponds to a 2-fold increase in PCR product, a difference of one in threshold cycle number represents a 2-fold difference in the expression of a particular gene compared to the calibrator sample and can be considered as significant. 95% of confidence level is used by the software to calculate the errors.
# (§7) The cold stress performed by 30' induction at -20°C corresponds to a block of water flux: the treatment has been done at this moment and followed by 16h and 48h recovery allowing to monitor the dynamic of the genomic response and to study product mechanism of action: the fig.3 described RHE's physiological response of saline solution treatment and glycerol compared to the RHE physiological response of the same treated with SOLUTIONS 1,2,3.
# [1] = system: Reconstructed Human Epidermis (RHE); test: LDH quantification (membrane integrity / viability) in cold-stress epidermal dryness model; type: cell-based
# Source text: as §1, §2
# Immediately after arrival in the laboratory, the RHE were transferred to a 6-well plate previously filled with maintenance medium (1 mL/well) at room temperature and incubated at 37°C, 5% CO2, saturated humidity. The test has been started the day after the arrival.
# The cell membrane forms a functional barrier around the cell, and traffic into and out of the cell is highly regulated by transporters, receptors and secretion pathways. When cells are damaged, they become 'leaky' and this forms the basis for the second type of assay. Membrane integrity is determined by measuring lactate dehydrogenase (LDH) in the extracellular medium. This enzyme is normally present in the cytosol, and cannot be measured extracellularly unless cell damage has occurred. […] The culture supernatant is collected and incubated with the reaction mixture including the kit (20 min, room T°, in the dark). An increase in the amount of dead or plasma membrane-damaged cells results in an increase of the LDH enzyme activity in the culture media. This increase in the amount of enzyme activity in the supernatant directly correlates to the amount of formazan formed during a defined time period therefore, the amount of color formed in the assay is proportional to the number of lysed cells.
# The higher optical density has been quantified in the media of stressed RHE and used as 100 % higher citotoxicity value.
# AQP3 = test: Real time PCR, AQP3 gene expression in RHE; type: cell-based, Human; conditions: for AQP3 (RQ): cold stressed RHE
# Source text: as §1, §2, §3, §4, §5, §6, §7
smiles,measurement,setting,value
"OCC(O)CO [Glycerin 5%, Glycerin]",HSP 72 (RQ),HSP1A1; 16H recovery,down-regulation
same,HSP 72 (RQ),"HSP1A1; 16H recovery, 960 min","0,139"
same,HSP 72 (RQ),HSP1A1; 48H recovery,"0,437"
same,HSP1A1 Gene expression,"HSP1A1; non stressed but treated RHE, standard condition, 16h, calibrator CN 16h=1 (Fig. 5)",significantly reduced
same,HSP1A1 (HSP 72) Gene expression,"HSP1A1; not stressed RHE, 48h treatment, calibrator CN 48h=1 (Fig. 5)",over expression
same,HSP 72 expression,"HSP1A1; stressed RHE, 16h recovery, calibrator positive stressed control (Fig. 6)",reduced
same,"citotoxicity (LDH release), verbal assessment","[1]; 16h and 48h, standard conditions (for Glycerin 5% also stressed conditions)",not citotoxic
same,% VIABILITY,"[1]; STANDARD conditions (without stress), 30 MIN + 16H","96,08%"
same,% VIABILITY,"[1]; STANDARD conditions (without stress), 30 MIN + 48H","63,14%"
same,% VIABILITY,"[1]; cold stressed RHE (30 MIN at -20°C), product applied, 16H recovery","80,70%"
same,% VIABILITY,"[1]; cold stressed RHE (30 MIN at -20°C), product applied, 48H recovery","61,11%"
same,AQP3 Gene expression (RQ),"AQP3; applied after 30' stress induction, 48h recovery, calibrator CONTROL RHE CN=1 (Fig. 3)",reduced
same,AQP3 (RQ),"AQP3; 16H recovery, calibrator RHE STRESSED SALINE =1","0,437"
same,AQP3 (RQ),"AQP3; 48H recovery, calibrator RHE STRESSED SALINE =1 (Fig. 4), 2880 min","0,409"
same,AQP3 (RQ),"AQP3; 48H recovery, calibrator RHE STRESSED SALINE =1 (Fig. 4), listed as Glycerol 5%",reduced
same,AQP3 Gene expression (RQ),"AQP3; non stressed but treated RHE, standard conditions, 16h, calibrator CN 16h=1 (Fig. 1)",significantly reduced
same,AQP3 Gene expression (RQ),"AQP3; non stressed but treated RHE, standard conditions, 48h, calibrator CN 48h=1 (Fig. 1)","1,694"

# From patent EP2695600A1, “Dermal cosmetic compositions having osmoprotecting activity” (Unifarco S.p.A., priority 2012, dated 2014)
